Like-named read-outs stand apart in the source and are kept apart here.
Experiments:
[1] = target: T1, Escherichia coli DdlB (EcDdl) (Escherichia coli, UniProt P07862); design: hexahistidine tag (from pET28a+) (N); made in house; host or cells: E. coli BL21; method as in Zawadzke et al., 1991; settings: EcDdlB, previously published value in parentheses, ref Zawadzke et al., 1991, cited from earlier work
[2] = target: T2, Mycobacterium tuberculosis Ddl (MtDdl) (Mycobacterium tuberculosis, UniProt P9WP31); settings: cited from earlier work
T2 construct: hexahistidine tag; made in house
T2 sequence (P9WP31 whole entry): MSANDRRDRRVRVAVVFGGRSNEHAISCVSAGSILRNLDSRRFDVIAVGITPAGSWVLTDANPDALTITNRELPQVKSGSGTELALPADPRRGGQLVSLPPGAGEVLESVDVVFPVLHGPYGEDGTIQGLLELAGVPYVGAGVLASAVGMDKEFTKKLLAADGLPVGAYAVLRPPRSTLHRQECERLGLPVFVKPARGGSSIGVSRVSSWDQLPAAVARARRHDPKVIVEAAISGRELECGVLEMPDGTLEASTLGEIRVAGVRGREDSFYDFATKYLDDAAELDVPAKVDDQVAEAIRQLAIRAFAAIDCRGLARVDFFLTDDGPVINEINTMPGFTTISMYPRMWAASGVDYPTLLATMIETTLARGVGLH

[3] = target: T1, Escherichia coli DdlB (EcDdl); assay: Slow-onset inhibition of EcDdl by stopped-flow coupled enzyme time courses; type: biochemical; design: hexahistidine tag (from pET28a+) (N); made in house; host or cells: E. coli BL21
Procedure: (§1) Steady-state kinetics and equilibrium binding were performed as previously described.[4] Time courses for the measurement of slow-onset inhibition were collected on an SX20 stopped-flow spectrometer (Applied Photophysics) at 37 °C, using a 10 mm path-length cell. Data points were recorded every 0.1 s. Catalysis was detected by the same coupled enzyme mechanism as used previously for steady-state kinetic measurements.[4] All reaction mixtures contained 50 mM HEPES (pH 7.3), 10 mM MgCl2, 80 mM KCl, 3 mM ATP, 0.25 mM NADH, 1.5 mM PEP, and a 40 μL/mL pyruvate kinase/lactate dehydrogenase enzyme solution (PK-LDH; stock solution of 600–1000 units/mL PK and 900–1400 units/mL LDH). MtDdl was employed at concentrations from 60 to 290 nM and EcDdl at a final concentration of 30 nM. DCS and D-Ala concentrations were varied as required. Reaction components were sorted into two syringes, with rapid mixing of 60 μL from each starting each reaction. For all assays, both syringes contained HEPES, MgCl2, KCl, NADH, PEP, and PK-LDH. MtDdl and D-Ala were always stored in separate syringes. For analysis of slow-onset inhibition at the C-terminal D-Ala binding site (i.e., data for Figure 1), DCS and Mt/EcDdl were stored in separate reaction mixtures prior to the commencement of the reaction. For analysis of slow-onset inhibition at the N-terminal D-Ala site (i.e., data for Figure 2), MtDdl and DCS (with or without ATP) were stored in the same reaction mixture (for at least 4 min) prior to the commencement of the reaction.
(§2) Individual time course data were fit using eq 1 [drawing 1] 1 where [P]t is the product formed at time t, [E] is the total MtDdl concentration, vi is the initial rate, vf is the final (steady-state) rate, and kobs is the apparent rate constant for approach to the steady state.[7] Time courses were performed in triplicate and kobs values averaged for each DCS and D-Ala concentration tested. Secondary replots of kobs versus DCS concentration were fit using eq 2 [drawing 2] 2 where [I] is the DCS concentration, [S] is the D-Ala concentration, and k2 and k–2 are rate constants as described in Scheme 2. The Km value was that for the C-terminal site (4 mM), as previously reported.[4]

[4] = target: T1, Escherichia coli DdlB (EcDdl); assay: Steady-state kinetics of EcDdl
Procedure: (§3) Time courses for the measurement of slow-onset inhibition were collected on an SX20 stopped-flow spectrometer (Applied Photophysics) at 37 °C, using a 10 mm path-length cell. Data points were recorded every 0.1 s. Catalysis was detected by the same coupled enzyme mechanism as used previously for steady-state kinetic measurements.[4] All reaction mixtures contained 50 mM HEPES (pH 7.3), 10 mM MgCl2, 80 mM KCl, 3 mM ATP, 0.25 mM NADH, 1.5 mM PEP, and a 40 μL/mL pyruvate kinase/lactate dehydrogenase enzyme solution (PK-LDH; stock solution of 600–1000 units/mL PK and 900–1400 units/mL LDH). MtDdl was employed at concentrations from 60 to 290 nM and EcDdl at a final concentration of 30 nM. DCS and D-Ala concentrations were varied as required. Reaction components were sorted into two syringes, with rapid mixing of 60 μL from each starting each reaction. For all assays, both syringes contained HEPES, MgCl2, KCl, NADH, PEP, and PK-LDH. MtDdl and D-Ala were always stored in separate syringes. For analysis of slow-onset inhibition at the C-terminal D-Ala binding site (i.e., data for Figure 1), DCS and Mt/EcDdl were stored in separate reaction mixtures prior to the commencement of the reaction. […]

[5] = target: T2, Mycobacterium tuberculosis Ddl (MtDdl); assay: Slow-onset inhibition of MtDdl by stopped-flow coupled enzyme time courses; type: biochemical; settings: for koff: read-out: k–2 (DCS dissociation rate constant)
Procedure: as §1, §2

MtDdl = assay: Theoretical calculation of dissociative t1/2 for MtDdl:ATP:D-Ala1:D-Ala2 complex; design: species or system Mycobacterium tuberculosis; settings: theoretical calculations
Excerpt: Supporting Information to:
Reinterpreting the mechanism of inhibition of Mycobacterium tuberculosis D-Alanine:D-Alanine ligase by D-Cycloserine.
Gareth Prosser and Luiz Pedro S. de Carvalho.
Division of Mycobacterial Research, MRC National Institute for Medical Research, The Ridgeway, […]
Table S1. Steady-state kinetic parameters for MtDdl and EcDdl. […]
aReaction conditions for both enzymes were as previously reported.1 bValues for MtDdl taken from our previous work.1 cValues in parentheses are previously published values.2
Theoretical calculation of dissociative t1/2 for MtDdl:ATP:D-Ala1:D-Ala2 complex […]
k = diffusion-rate limited = 1 × 1010 M-1.s-1
Figure S1. Comparison of dissociative half-lives (t1/2) of MtDdl:ATP:D-Ala:DCS and MtDdl:ATP:D-Ala-D-Ala complexes. Half-life for DCS-containing complex was measured experimentally as described in the main paper. Half-life for D-Ala-only-containing complex was calculated theoretically as described […]
(1 picture or pasted object on this page, not shown here)

C[C@@H](N)C(=O)O = assay: purified protein, by the assay type; settings: other: EcDdlB; pH 7.3; 37.0 °C
Procedure: as §3

[6] = EcDdl preincubated with ATP, only 0.75 mM D-Ala tested
[7] = MtDdl preincubated with ATP with DCS, MtDdl–ATP complex, 40 mM D-Ala, 3 mM ATP
[8] = MtDdl preincubated with ATP, C-terminal D-Ala site, averaged over 0.4 to 40 mM D-Ala, 37 °C, pH 7.3

C[C@@H](N)C(=O)O [D-Ala, D-alanine]
Km ([1]; read-out: Km,D-Ala2): 1.2 mM | Km ([2]; read-out: Km for the C-terminal site, value used in eq 2): 4 mM | Km ([2]; read-out: Km,D-Ala2, C-terminal site, previous work, ref Prosser and de Carvalho, 2013): 3.6 ± 0.6 mM

N[C@@H]1CONC1=O [DCS, (R)-4-amino-1,2-oxazolidin-3-one]
fold faster rate of association of the enzyme–inhibitor complex (k2), EcDdl vs MtDdl ([3]; EcDdl compared with MtDdl): > 3 fold | fold faster rate of dissociation of the enzyme–inhibitor complex (k–2), EcDdl vs MtDdl ([3]; EcDdl compared with MtDdl): 10 fold | k2 (DCS binding rate constant) [3, 6]: 2970 ± 360 M^–1 s^–1 | t1/2 (dissociative half-life) [3, 6]: 5 s | koff ([3]; EcDdl preincubated with ATP, only 0.75 mM D-Ala tested, read-out: k–2 (DCS dissociation rate constant)): 0.13 ± 0.03 s⁻¹ | stability by one-dimensional NMR (across all pHs tested over the time frame of the experiment): stable | stability by one-dimensional and 13C HSQC NMR (in the presence and absence of enzyme (and other buffer components)): no spectral changes | Ki [4]: 44 ± 10 µM | t1/2 (dissociative half-life) ([5]; MtDdl preincubated with ATP with DCS, MtDdl–ATP complex): 25 s | k2 (DCS binding rate constant) [5, 7]: 373 ± 11 M^–1 s^–1 | koff [5, 7]: 0.028 ± 0.001 s⁻¹ | k2 (DCS binding rate constant) [5, 8]: 888 ± 36 M^–1 s^–1 | koff [5, 8]: 0.014 ± 0.003 s⁻¹ | t1/2 (dissociative half-life) ([5]; MtDdl preincubated with ATP, MtDdl:ATP:D-Ala:DCS complex): 48 s | DCS–MtDdl complex residence time longer than that for the D-Ala–MtDdl complex (MtDdl): up to 8 orders of magnitude | Ki ([1]; read-out: Ki,DCS2): 27 µM | Ki ([2]; MtDdl–ATP–D-Ala complex, previous work, read-out: Ki,DCS2): 25 µM | Ki ([2]; previous data, read-out: Ki,DCS1): 15 µM

Escherichia coli DdlB (EcDdl) (Escherichia coli K-12)
Km (C[C@@H](N)C(=O)O): 0.8 ± 0.07 mM

Reference: PMC3944805, “Reinterpreting the Mechanism of Inhibition of Mycobacterium tuberculosisD-Alanine:D-Alanine Ligase by D-Cycloserine” (Biochemistry, 2013)
